Literature values as cited in US20090048110A1, “Orchid Culturing Method” (priority 2005, published 2009).

Tested on: Dendrobium
Conditions: application to the mature pseudobulbs, but not the developing ones

In the case of `c1ccc(CNc2ncnc3nc[nH]c23)cc1` [6-BAP, 6-benzylaminopurine], the triggering of spiking is listed as “shown to trigger spiking”.
